Test results taken from patent US20210161868A1, “ANTI-INFLAMMATORY THERAPY IN ARRHYTHMOGENIC CARDIOMYOPATHY (ACM)” (Beth Israel Deaconess Medical Center, Inc., priority 2018, published 2021).
“Also recorded” adds a separate entry of the source.

What was measured:
ACM mice = assay: Arrhythmias in ACM mice treated with SB216763 (previous unpublished observations); type: in vivo
[1] = tested on: neonatal rat ventricular myocytes (NRVMs) expressing JUP^2157del2; conditions: NRVMs expressing mutant plakoglobin, previous reports; cited from earlier work
models of ACM = conditions: multiple in vitro and in vivo models, human iPSC-cardiac myocytes; cited from earlier work

Structure (SMILES): Cn1cc(C2=C(c3ccc(Cl)cc3Cl)C(=O)NC2=O)c2ccccc21 [SB216763]
- time to return of arrhythmias after cessation of treatment (ACM mice; ACM mice): ≤ 48 h
- time to cessation of arrhythmias (ACM mice; ACM mice under treatment): ≤ 24 h
- in vitro ACM features (protein redistribution, apoptosis, cytokines) [1]: blocked; also recorded: normalized
- full ACM disease phenotype (models of ACM): prevent and/or reverse
